Reference: patent publication US11242508B2, “Methods relating to pluripotent cells” (priority 2014, dated 2022)
Where two headings read alike, the source gives them in different places.

Tests used:
[1] = test system: Bone Marrow somatic cells; experiment: Percent of cells demonstrating pluripotent phenotype after stress treatment; format: cell-based, mice; settings: 1 week-old, after 1 week of stress treatment
Source text: (§1) Stress alteration of mature somatic cells procured from various adult tissues. To examine whether ACCs could be generated not only mature lymphocytes but also other types of somatic cells, brain, skin, muscle, fat, bone marrow, lung and liver were harvested from Oct4-GFP (GOF) mice^8. Cells were isolated from the tissue samples, dissociated into single cells, and treated with different physical and or chemical stress conditions. The efficiency of the process to alter the cells differed as a function of both the source of cells and the stress condition(s) to which the cells were exposed (FIG. 7A). The ability of stress to alter mature cells to express Oct4, differed depending on the derivation of cells, but stress was able to alter cells to express Oct4 to some degree in mature cells derived from all three germ layers (FIG. 7A). ACC colonies derived from any mature tissue expressed pluripotent markers, E-cadherin, Nanog, PCAM-1 and AP (data not shown), and ES specific marker genes (FIG. 7B). Significant physical and chemical stresses altered mature somatic cells to revert to a stem cell state, despite of the source of tissues and derivation of the germ layers.
(§2) Exposure to external stimuli-stress treatment. To give a mechanical stress to mature cells, pasture pipette were heated and then stretched to create lumens approximately 50 microns in diameters, and then broken. Mature somatic cells were then triturated through these pipettes for 20 min, and cultured for 7 days. To provide a hypoxic stimulus to mature cells, cells were cultured in a 5% oxygen incubator for 3 weeks. An under nutrition stimulus was provided to mature cells, by culturing the cells in a basic culture medium for 3 weeks. To expose the mature cells to a physiological stress, they were treated with low pH (pH5.5) solution, and cultured for 7 days. Also, cells were given more serious damage. To create pores in mature cell membranes, cells were treated with SLO (Streptolysin O).
(§3) SLO-treated cells were incubated in HBSS containing 10 μg/mL SLO at 37° C. for 50 min and then cultured in culture medium without SLO for 7 days. Cells exposed to under-nutrition stress were cultured in basal medium for 2 to 3 weeks. […] Cells exposed to “Ca” stress were cultured in culture medium containing 2 mM CaCl2) for 2 weeks.
(§4) Fluorescence-Activated Cell Sorting and Flow Cytometry. Cells were prepared according to standard protocols and suspended in 0.1% BSA/PBS on ice prior to FACS. PI (BD Biosciences) was used to exclude dead cells. Cells were sorted on a BD FACSAria SORP and analyzed on a BD LSRII with BD FACSDiva Software (BD Biosciences).

Muscle somatic cells = experiment: as above; format: cell-based, mice; settings: 1 week-old, after 1 week of stress treatment
Source text: as §1, §2, §3, §4

Fibroblast = experiment: as above; format: cell-based, mice; settings: 1 week-old, after 1 week of stress treatment
Source text: as §1, §2, §3, §4

Lung somatic cells = experiment: as above; format: cell-based, mice; settings: 1 week-old, after 1 week of stress treatment
Source text: as §1, §2, §3, §4

Fat somatic cells = experiment: as above; format: cell-based, mice; settings: 1 week-old, after 1 week of stress treatment
Source text: as §1, §2, §3, §4

mature somatic cells = experiment: STAP cell generation with low pH solution containing ATP; format: cell-based; settings: low pH solution containing ATP versus pH alone
Protocol: When this solution is used in combination with mechanical trituration of mature cells, the results were even more profound. Consequently, described herein is a protocol which incorporates these findings to increase the efficacy of generating STAP cells.
A1. Make a low pH HBSS solution containing ACT as follows and then set aside for use in step A4. […] The pH of this solution is about 3.0.
Place 5 mL of HBSS (with phenol red) [Life Technologies, 14170-161] into a 15 mL tube. Place a clean pH sensor into the HBSS. Titrate in the ACT stock solution, drop by drop, into the HBSS until the desired pH of, e.g., 5.0 is obtained. Mix the solution regularly to ensure that the measurement is accurate.
A4. […] In some embodiments, a volume of 2-3 ml of the cell suspension in a 50 ml tube can be used.

Brain somatic cells = format: cell-based, mice; settings: 1 week-old, after 1 week of stress treatment
Protocol: Exposure to external stimuli-stress treatment. To give a mechanical stress to mature cells, pasture pipette were heated and then stretched to create lumens approximately 50 microns in diameters, and then broken. Mature somatic cells were then triturated through these pipettes for 20 min, and cultured for 7 days. To provide a hypoxic stimulus to mature cells, cells were cultured in a 5% oxygen incubator for 3 weeks. An under nutrition stimulus was provided to mature cells, by culturing the cells in a basic culture medium for 3 weeks. To expose the mature cells to a physiological stress, they were treated with low pH (pH5.5) solution, and cultured for 7 days. Also, cells were given more serious damage. To create pores in mature cell membranes, cells were treated with SLO (Streptolysin O). […]
Cells were prepared according to standard protocols and suspended in 0.1% BSA/PBS on ice prior to FACS. […] Cells were sorted on a BD FACSAria SORP and analyzed on a BD LSRII with BD FACSDiva Software (BD Biosciences).

NK1-R [2] = molecular target: T1, NK1-R (Rattus norvegicus, UniProt P14600); format: in vivo; settings: naïve rats (and rats that received Blank-SAP followed by stem cells, not shown); 30 uL i.t. injection; read-out: IC50, thermal hyperalgesia
T1 construct: from tissue; host or cells: spinal cord of living adult male Sprague-Dawley rats (in vivo, intrathecal dosing)
Protocol: (§5) The highly specific cytotoxin SSP-SAP (20 uL, 1 uM) was injected into the intrathecal (i.t.) space of the male rat spinal cord in order to ablate a large majority of the neurokinin-1 receptor (NK1R)-expressing neurons. Two to 3 weeks later the normally robust hyperalgesic responses to injection of capsaicin (10 uL, 0.1%) in the plantar hindpaw, consisting of mechanical hyperalgesia to stimulation by von Frey filaments and thermal hyperalgesia appearing as a shortening of the latency of withdrawal to a radiant heat source, were almost absent. […] It thus appears that STAP stem cells can restore normal function after specific spinal neuronal loss and present a model for a therapeutic approach to spinal cord injury.
(§6) Adult male S-D rats were first handled for 4-5 days to familiarize them with the test arena, to minimize stress-induced analgesia, and to obtain Naïve and initial Baseline behavioral data. Tactile responsiveness was determined by probing the plantar surface of one hindpaw with a 15 g von Frey filament (VFH), 10 times every 3 secs. Baseline sensitivity, with no treatments and no capsaicin equaled ˜1-2 paw withdrawals per 10 probes. Thermal sensitivity was indicated by the latency for paw withdrawal from a radiant heat source (Hargreaves method: cutoff time set at 18 sec.). Baseline latency ˜16 sec. Before any intrathecal injections, the Naïve rats' responses to capsaicin injection into the hindpaw were determined to be: Tactile: 6 withdrawals/10 VFH probes, and Thermal: 6 sec latency.

NK1-R [3] = format: in vivo, rat
Protocol: as §5, §6

NK-1R = format: in vivo, rat
Protocol: as §5
as §6, with “Thermal sensitivity was indicated by the latency for paw withdrawal from a radiant heat source (Hargreaves method: cutoff time set at 18 sec.). Baseline latency ˜16 sec.” left out, “latency. […]” for “latency.”

NK1-R [4] = format: in vivo, rat; settings: for IC50: read-out: IC50, tactile hyperalgesia
Protocol: as §5, §6

T1 sequence (P14600 whole entry): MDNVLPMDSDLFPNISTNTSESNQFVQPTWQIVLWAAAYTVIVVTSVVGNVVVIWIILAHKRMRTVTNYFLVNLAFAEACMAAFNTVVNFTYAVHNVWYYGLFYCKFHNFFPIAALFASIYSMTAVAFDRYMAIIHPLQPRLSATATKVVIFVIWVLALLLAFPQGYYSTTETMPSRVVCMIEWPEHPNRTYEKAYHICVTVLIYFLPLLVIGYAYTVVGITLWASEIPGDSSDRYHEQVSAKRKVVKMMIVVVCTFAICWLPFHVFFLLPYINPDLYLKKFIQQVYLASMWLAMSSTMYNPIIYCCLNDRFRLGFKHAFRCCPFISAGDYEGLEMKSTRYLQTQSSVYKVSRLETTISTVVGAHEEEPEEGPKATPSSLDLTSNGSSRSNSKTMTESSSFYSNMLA

| Compound | Percent of cells demonstrating pluripotent phenotype [1] [%] | Percent of cells demonstrating pluripotent phenotype (Muscle somatic cells) [%] | Percent of cells demonstrating pluripotent phenotype (Fibroblast) [%] | Percent of cells demonstrating pluripotent phenotype (Lung somatic cells) [%] | Percent of cells demonstrating pluripotent phenotype (Fat somatic cells) [%] | Percent of cells demonstrating pluripotent phenotype (Brain somatic cells) [%] | further results |
| --- | --- | --- | --- | --- | --- | --- | --- |
| Nc1ncnc2c1ncn2[C@@H]1O[C@H](COP(=O)([O-])OP(=O)([O-])OP(=O)(O)O)[C@@H](O)[C@H]1O.O.[Na+].[Na+] [ATP, Adenosine 5′ Triphosphate Disodium Salt Hydrate] | 12.3 | 68.4 | 25.10 | 9.8 | 79.6 | – | Efficacy of conversion to STAP cells (mature somatic cells): dramatically increased the efficacy of this conversion |
| [Ca+2].[Cl-].[Cl-] [Ca, CaCl2] | 1.2 | 1.5 | 3.5 | 1.3 | 2.7 | 0.8 | – |
| FC(F)(F)c1cc(CO[C@H]2CCCN[C@H]2c2ccccc2)cc(C(F)(F)F)c1 [L-733,060] | – | – | – | – | – | – | IC50 (NK1-R [2]): ~300 µM; IC50 (NK1-R [3]; stem cell-restored rats, i.t. injection, read-out: IC50, thermal hyperalgesia): ~5 µM; Enhancement of potency for inhibition of capsaicin hyperalgesia (NK-1R; STAP stem cell restored rats over Naïve rats or rats that received Blank-SAP): 10-60 times; Inhibition of the restored hyperalgesic response (NK-1R; STAP stem cell-restored rats, i.t. injection at 300 uM): fully inhibited; IC50 (NK1-R [4]; naïve rats (and rats that received Blank-SAP followed by stem cells, not shown), 30 uL i.t. injection): ~300 µM; IC50 (NK1-R [4]; stem cell-restored rats, i.t. injection): ~30 µM |
| COc1cc(CNC(=O)CCCC/C=C/C(C)C)ccc1O [capsaicin] | – | – | – | – | – | – | Thermal response to capsaicin injection into the hindpaw, latency (NK1-R [3]; Naïve rats, before any intrathecal injections, radiant heat, cutoff 18 sec): 6 s; Tactile response to capsaicin injection into the hindpaw (NK1-R [4]; Naïve rats, before any intrathecal injections, 15 g von Frey filament): 6 withdrawals/10 VFH probes |
| streptolysin O [SLO] | 13.2 | 20.5 | 15.2 | 18.4 | 32.8 | 10.3 | – |
